In patent publication US11357734B2, “Pharmaceutical granulations of water-soluble active pharmaceutical ingredients” (XWPHARMA LTD., priority 2020, dated 2022):

Columns and labels:
Format in all cases: physicochemical
[1] = Tapped bulk density (USP 616); settings: active pharmaceutical ingredient used in Example 13
Excerpt: Tapped bulk density can be determined according to USP 616.

[2] = Specific surface area by laser diffraction
Experimental: Specific surface area can be determined by laser diffraction.
The specific surface area distributions of as-crystallized active pharmaceutical ingredient and jet-milled active pharmaceutical ingredient was determined by laser diffraction. […] In other samples, the jet milled active pharmaceutical ingredient was characterized by a specific surface area of 1174 m^2/kg.

[3] = Bulk density (USP 616, Method 1; bulk density cylinder)
Excerpt: Bulk density can be determined according to USP 616, Method 1.
Bulk density can be determined using a bulk density cylinder.

[4] = Particle size distribution by laser diffraction
Excerpt: The parameter D90 refers to the point in the size distribution of a sample, up to and including which, 90% of the total volume of material in the sample is contained. For example for a D90 of 400 μm, 90% of the sample volume has a size of 400 μm or less. D50 is the size below which 50% of the total volume of material in the sample is contained. Similarly, D10 refers to the size below which 10% of the total volume of material in the sample is contained. The volume distribution of the sample can be determined by laser diffraction or by sieve analysis.
A particle size distribution can be determined by laser diffraction or by sieve analysis.
FIGS. 15 and 16 show a particle size distribution of as-crystallized active pharmaceutical ingredient and jet-milled active pharmaceutical ingredient, respectively, as determined by laser diffraction. The PSD of the as-crystallized active pharmaceutical ingredient was characterized by a D10 of 11.8 μm, a D50 of 34.0 μm, and a D90 of 72.3 μm. The PSD of the jet-milled active pharmaceutical ingredient was characterized by a D10 of 7.8 μm, a D50 of 16.1 μm, and a D90 of 21.5 μm.

Hausner Ratio (USP 1174) = settings: active pharmaceutical ingredient used in Example 13
Excerpt: The Hausner Ratio can be determined according to USP 1174.

[5] = active pharmaceutical ingredient used in Example 13
[6] = FIGS. 15 and 16, laser diffraction, listed as as-crystallized active pharmaceutical ingredient
[7] = FIGS. 15 and 16, laser diffraction, listed as jet-milled active pharmaceutical ingredient

SMILES | API Tapped Bulk Density [1] | specific surface area [2, 5] | specific surface area ([2]; laser diffraction, listed as as-crystallized active pharmaceutical ingredient) | API Bulk Density [3, 5] | PSD D10 [4, 6] | PSD D50 [4, 6] | PSD D90 [4, 6] | PSD D10 [4, 5] | PSD D50 [4, 5] | PSD D90 [4, 5] | Hausner Ratio (Hausner Ratio (USP 1174)) | specific surface area ([2]; in other samples) | specific surface area ([2]; laser diffraction, listed as jet-milled active pharmaceutical ingredient) | API Bulk Density ([3]; Jet Milled API used for granulation (13)) | PSD D10 [4, 7] | PSD D50 [4, 7] | PSD D90 [4, 7] | bulk density ([3]; active pharmaceutical ingredient of Example 9, before Comil) | bulk density ([3]; active pharmaceutical ingredient used in Examples 1-6)
CC(C)[C@H](N)C(=O)OCCCC(=O)O [As-Crystallized, 4-((L-valyl)oxy)butanoic acid] | 0.38 g/mL | 291 m^2/kg | 291 m^2/kg | 0.20 g/mL | 11.8 μm | 34.0 μm | 72.3 μm | 12 μm | 34 μm | 71 μm | 1.85 | – | – | – | – | – | – | – | –
CC(C)[C@H](N)C(=O)OCCCC(=O)O [Jet-Milled, 4-((L-valyl)oxy)butanoic acid] | 0.20 g/mL | 478 m^2/kg | – | 0.12 g/mL | – | – | – | 8 μm | 16 μm | 28 μm | 1.700 | 1174 m^2/kg | 478 m^2/kg | 0.12 g/mL | 7.8 μm | 16.1 μm | 21.5 μm | – | –
CC(C)[C@H](N)C(=O)OCCCC(=O)O [active pharmaceutical ingredient, 4-((L-valyl)oxy)butanoic acid] | – | – | – | – | – | – | – | – | – | – | – | – | – | – | – | – | – | 0.263 g/mL | 0.15 g/mL
